Measured values as given in patent US9365583B2, “Substituted pyrazoles and uses thereof” (Genentech, Inc., priority 2013, dated 2016).

Target: T1, N-terminally GST-tagged DLK (catalytic domain amino acid 1-520) (Homo sapiens, UniProt Q12852)
T1 construct: N-terminally GST-tagged DLK (catalytic domain amino acid 1-520); purchased Carna Bioscience
T1 sequence (Q12852 1-520): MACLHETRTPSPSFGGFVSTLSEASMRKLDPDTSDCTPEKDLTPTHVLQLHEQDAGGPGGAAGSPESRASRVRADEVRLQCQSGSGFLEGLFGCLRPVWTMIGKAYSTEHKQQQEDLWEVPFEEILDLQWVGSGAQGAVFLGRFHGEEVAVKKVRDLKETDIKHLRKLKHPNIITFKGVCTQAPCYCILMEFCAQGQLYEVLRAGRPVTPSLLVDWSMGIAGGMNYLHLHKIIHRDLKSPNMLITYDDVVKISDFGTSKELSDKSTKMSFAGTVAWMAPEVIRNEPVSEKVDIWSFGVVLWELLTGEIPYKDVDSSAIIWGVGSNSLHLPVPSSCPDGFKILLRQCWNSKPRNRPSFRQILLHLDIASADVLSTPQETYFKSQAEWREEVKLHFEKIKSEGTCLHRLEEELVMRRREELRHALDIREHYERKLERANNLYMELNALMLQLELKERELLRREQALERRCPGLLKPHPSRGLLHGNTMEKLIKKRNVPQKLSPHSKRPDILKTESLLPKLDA
Experiment: DLK TR-FRET inhibition assay
Assay type: biochemical
Conditions: 5 nM GST-DLK, 40 nM HIS-MKK4 K131M substrate, 30 μM ATP, 60 minutes at ambient temperature
Procedure: DLK TR-FRET inhibition assay: DLK kinase reactions (20 μL) containing 5 nM N-terminally GST-tagged DLK (catalytic domain amino acid 1-520) (Carna Bioscience), 40 nM N-terminally HIS-tagged MKK4 K131M substrate, and 30 μM ATP in kinase reaction buffer (50 mM HEPES, pH 7.5, 0.01% Triton X-100, 0.01% Bovine γ-Globulins, 2 mM DTT, 10 mM MgCl2 and 1 mM EGTA), and testing compound 1:3 serial diluted starting at 20 uM were incubated at ambient temperature for 60 minutes in 384 well OptiPlate (Perkin Elmer). To quench kinase reactions and detect phosphorylated MKK4, 15 μL of TR-FRET antibody mixture containing 2 nM anti-phosphorylated MKK4 labeled with Europium cryptate (Cisbio) and 23 nM anti-HIS labeled with D2 (Cisbio) in detection buffer (25 mM Tris pH 7.5, 100 mM NaCl, 100 mM EDTA, 0.01% Tween-20, and 200 mM KF) was added to the reaction mixture. The detection mixture was incubated for 3 hours at ambient temperature and the TR-FRET was detected with an EnVision multilabel plate reader (Perkin-Elmer) using the LANCE/DELFIA Dual Enh label from Perkin-Elmer (excitation filter: UV2 (TRF) 320 and emission filters: APC 665 and Europium 615).

Row | Compound | Ki [nM]
1 | CC(C)n1nc(-c2cnc(N)c(C(F)(F)F)c2)cc1[C@H]1[C@@H]2C[C@@H](N(C)CCS(C)(=O)=O)C[C@@H]21 [compound 7, 5-(1-isopropyl-5-((1R,3s,5S,6r)-3-(methyl(2-(methylsulfonyl)ethyl)amino)bicyclo[3.1.0]hexan-6-yl)-1H-pyrazol-3-yl)-3-(trifluoromethyl)pyridin-2-amine] | 4.63
2 | CC(C)n1nc(-c2cnc(N)c(C(F)(F)F)c2)cc1[C@H]1[C@@H]2CC3(C[C@@H]21)CN(C)C(=O)CO3 (stereo partly drawn) [compound 229, (1R,5S,6r)-6-(3-(6-amino-5-(tri-fluoromethyl)pyridin-3-yl)-1-isopropyl-1H-pyrazol-5-yl)-4′-methylspiro[bicyclo[3.1.0]hexane-3,2′-morpholin]-5′-one] | 3.9
3 | CC(C)n1nc(-c2cnc(N)c(C(F)(F)F)c2)cc1[C@H]1[C@@H]2CC(N3CCN4CCOCC4C3)C[C@@H]21 (single isomer, unassigned) [compound 196] | 3.4
4 | COC1CN([C@@H]2C[C@@H]3[C@H](C2)[C@H]3c2cc(-c3cnc(N)c(OC(F)F)c3)nn2C(C)C)C1 [compound 62, 3-(difIuoromethoxy)-5-(1-isopropyl-5-((1R,3s,5S,6r)-3-(3-methoxy-azetidin-1-yl)bicyclo[3.1.0]hexan-6-yl)-1H-pyrazol-3-yl) pyridin-2-amine] | 2.73
5 | CO[C@@H]1CCN([C@H]2C[C@@H]3[C@H](C2)[C@H]3c2cc(-c3cnc(N)c(C(F)(F)F)c3)nn2C(C)C)C1 [compound 185, 5-(1-isopropyl-5-((1R,3r,5S,6R)-3-((R)-3-methoxypyrrolidin-1-yl)bicyclo[3.1.0]hexan-6-yl)-1H-pyrazol-3-yl)-3-(trifluoromethyl) pyridin-2-amine] | 1.6
6 | CC(C)n1nc(-c2cnc(N)c(OC(F)F)c2)cc1[C@H]1[C@@H]2C[C@@H](N3CCCN(C)CC3)C[C@@H]21 [compound 205, 3-(difluoromethoxy)-5-(1-isopropyl-5-((1R,3s,5S,6r)-3-(4-methyl-1,4-diazepan-1-yl)bicyclo [3.1.0]hexan-6-yl)-1H-pyrazol-3-yl)pyridin-2-amine] | 2.9
7 | Nc1ncc(-c2cc([C@H]3[C@@H]4C[C@H](N5CCOCC5)C[C@@H]43)n(CC3CC3)n2)cc1OC(F)F [compound 274, 5-(1-(cyclopropylmethyl)-5-((1R,3r,5S,6r)-3-morpholinobicyclo [3.1.0]hexan-6-yl)-1H-pyrazol-3-yl)-3-(difluoromethoxy)pyridin-2-amine] | 1.3
8 | CC(C)n1nc(-c2cnc(N)c(C(F)(F)F)c2)cc1[C@H]1[C@@H]2C[C@@H](N3CCN(C4COC4)CC3)C[C@@H]21 [compound 117, 5-(1-isopropyl-5-((1R,3s,5S,6r)-3-(4-(oxetan-3-yl)piperazin-1-yl)bicyclo[3.1.0]hexan-6-yl)-1H-pyrazol-3-yl)-3-(trifluoromethyl) pyridin-2-amine] | 5.26
9 | CC(C)n1nc(-c2cnc(N)c(C(F)(F)F)c2)cc1[C@H]1[C@@H]2C[C@H](N3CCOC[C@H]3C)C[C@@H]21 [compound 46, 5-(1-isopropyl-5-((1R,3s,5S,6R)-3-((R)-3-methylmorpholino)bicyclo[3.1.0]hexan-6-yl)-1H-pyrazol-3-yl)-3-(trifluoromethyl) pyridin-2-amine] | 1.85
10 | CCN1CCN([C@H]2C[C@@H]3[C@H](C2)[C@H]3c2cc(-c3cnc(N)c(OC(F)(F)F)c3)nn2C(C)C)CC1 [compound 14, 5-(5-((1R,3r,5S,6r)-3-(4-ethylpiperazin-1-yl)bicyclo[3.1.0]hexan-6-yl)-1-isopropyl-1H-pyrazol-3-yl)-3-(trifluoromethoxy) pyridin-2-amine] | 1.72
11 | CO[C@@H]1C[C@@H]2[C@H](C1)[C@H]2c1cc(-c2cnc(N)c(OC(F)F)c2)nn1C(C)C [compound 195, 3-(difluoromethoxy)-5-(1-isopropyl-5-((1R,3s,5S,6r)-3-methoxy-bicyclo[3.1.0]hexan-6-yl)-1H-pyrazol-3-yl)pyridin-2-amine] | 6.4
